Experimental findings from US20200138764A1, “METHODS AND DEVICES FOR ACTIVATING ADIPOSE TISSUE” (The Procter & Gamble Company, priority 2018, published 2020) are described below.

In the assay the test system is Human subcutaneous pre-adipocytes. The experiment in a line: Lipogenesis Assay (AdipoRed staining). In kind it is cell-based. Particulars: AdipoRed fluorescence, NI = no inhibition at concentration less than/equal to 1 mM. As for the experimental part:
Lipogenesis is the process by which acetyl-CoA is converted to fatty acid. Through lipogenesis and subsequent triglyceride synthesis, energy can be stored in the form of adipose tissue (i.e. fats). To determine what effect, if any, activating compounds (shown in TABLE 1) had on lipogenesis, the protocol listed below was used.
To determine whether the activating compounds (shown in TABLE 1) impacted the formation of white adipocytes from pre-adipocytes, a lipogenesis assay was performed. The cells utilized in the protocol were cryo-preserved Human subcutaneous pre-adipocytes superlot (Zen-Bio, Inc., Research Triangle Park, N.C., Cat # SP-F-SL). The growth media used was PM-1 (Zen-Bio, Inc., Research Triangle Park, N.C., cat # PM-1) plus 5 ng/mL Epidermal Growth Factor (EGF). The PM-1+5 ng/mL EGF was prepared by adding 12.5 uL of 200 ug/mL EGF stock to 500 mL PM-1. The differentiation media used was DM-2 (Zen-Bio, Inc., Research Triangle Park, N.C., cat # DM-2). The adipocyte maintenance media used was AM-1 (Zen-Bio, Inc., Research Triangle Park, N.C., cat # AM-1).
First, the human subcutaneous pre-adipocyte cells were thawed in a 37° C. water bath. Next, the thawed pre-adipocyte cells were added to 9 mL of growth medium (PM-1) at 20° C. in a 15 mL polypropylene tube (Bioexpress, Corning, Corning, N.Y.). The tube was centrifuged at 280×g (˜1100 rpm) at 20° C. for 5 min. After 5 min, the supernatant was removed and the accumulated solids were re-suspended in 2 mL of PM-1 using trituration. The suspension of cells was counted under 100× magnification using a Cyto C-Chip hemacytometer (Incyto, Seoul, South Korea, cat # DHC-N01-5). In order to proceed, 15-50 cells per 1×1 mm square in hemacytometer was needed. If, the number of cells per square was not met, 6.7×10^5 (670,000) cells per T75 flask (Bioexpress, Corning, Corning, N.Y.) were added to each square and the suspension was diluted to 20 mL with PM-1. Every other day, new media was added to replace media removed due to metabolism by the cells. The cells were re-counted as described previously. Cells were grown to 80-90% confluence, which took approximately 4-5 days. 80-90% confluence is determined by visual inspection of the area of the flask occupied by the cells. When 80-90% of the flask area has been occupied, cells are at 80-90% confluence. Cell colonies were then split 1:6 by harvesting from a single flask and equally dividing the harvested cells into six flasks. Colonies were not allowed to exceed 3 passages and were not grown to complete confluence. The pre-adipocytes were grown until they contact with other cells in the flask to aid differentiation into white or brown adipocytes.
After the pre-adipocytes were sufficiently grown to 90% confluence, the cells were ready for differentiation and treatment with an activating compound. Cells were washed with 3 mL of PBS and detached using 3 mL of Trypsin EDTA. The cells were incubated at 37° C. for 5 minutes. Next, the cells were centrifuged at 280×g at 20° C. for 5 minutes. The supernatant was discarded and the resulting pellet was re-suspended in 10 mL of PM-1 using trituration. Cells were counted at 100× magnification and the cells were diluted to 86,667 cells/mL (˜13,000 cells/150 μL) by adding the necessary amount of PM-1 to achieve the desired concentration. Upon addition of PM-1, samples were swirled by hand to evenly disperse the cells prior to plating.
Once confluence is reached, 150 μL of differentiation media (DM-2) was added (DAY 0). Samples were incubated at 37° C. for 6 days. On DAY 6, 90 μL of media was removed from each sample via aspiration, without touching the bottom of the well. Next, 140 μL of adipocyte maintenance medium (AM-1) was added. The AM-1 ran down the side of well. On DAY 6, activating compounds were added (2 μL of 10 mM activating compound) to give a final concentration of 100 μM of activating compounds. […]

Structures are written as SMILES.

Consider `CC(C)[C@@H]1CC[C@@H](C)C[C@H]1C(=O)NC[C@@H](NC(=O)[C@H](C)N)c1ccccc1` [Formula III], for which, where the note is “Homo sapiens”, the IC50 – broadly, the concentration needed to halve the response being measured – worked out at 25 µM.

Turning to `CC1CCC(C(C)C)C(O)C1` (centres unmarked) [Menthol], the “Lipogenesis IC50” value is on record as “no inhibition”. Moreover, for the setting “Homo sapiens”, the IC50 is more than 1000 µM. Take `CCOC(=O)CNC(=O)[C@@H]1C[C@H](C)CC[C@H]1C(C)C` [WS-5]: the IC50 amounted to 600 µM. The compound also returned an IC50 (Homo sapiens) of 500 µM.
